{"source": "patent US7834049B2", "about": "“Integrin expression inhibitor” (Eisai R&D Management Co., Ltd., priority 2000, dated 2010)", "key": {"[1]": {"test_system": "human colic cancer cell strains (WiDr) chamber in C57 Black female mouse", "experiment": "Antiangiogenic effect-3 (in vivo): mouse air capsule method with WiDr chamber", "details": "dose of 50 mg/kg, orally administered, once a day; measured 4 days after chamber transplantation", "experimental": "The above activity was evaluated using a method obtained by improving a mouse air capsule method (Sakamoto et al., Cancer Res., 1, 55-57, 1986) in part. Specifically, a millipore ring (Nippon Millipore) was sealed using a 0.22 μm membrane filter (HAWPO, Nippon Millipore) to form a chamber. 1×10^7 human colic cancer cell strains (WiDr) which were suspended in a phosphoric acid buffer solution were sealed into the chamber. Next, an air capsule was formed on a subcutaneous site of the backside of a C57 Black female mouse of 6 to 8 weeks age and the foregoing chamber was transplanted to the air capsule. The compound A was orally administered after about 6 hours passed after the transplantation was finished and afterwards administered in sequence once a day for 3 days. The erythrocytes of the mouse that was labeled with ^51Cr was injected from the tail vein 4 days after the chamber was transplanted. […] Then, a value obtained by subtracting the amount of blood measured in the case of the chamber including no cancer cell from the above amount of blood was determined as the amount of angiogenesis. […] If the results are evaluated by T/C (%): the amount of angiogenesis of the compound-administered groups/the amount of angiogenesis of the vehicle-administered groups×100, the compound A had such an effect as T/C=53% at a dose of 50 mg/kg."}, "integrin α6 [2]": {"test_system": "integrin α6", "experiment": "Integrin expression inhibitory action on HUVEC (flow cytometer)", "assay_type": "cell-based, human", "details": "0.05 μg/ml, 48 hours", "experimental": "(§1) Human umbilical venous endothelial cells (HUVEC) of 5×10^5 in number were seeded in a 75 cm^2 cell culture bottle and then cultured using an EGM medium (Sanko Junyaku) at 37° C. in a CO2 incubator. Then, after 3 hours, the EGM medium was exchanged for the same medium including compound A, which was then cultured for further 48 hours. Next, the cells were collected and washed with a bovine serum albumin-containing phosphate buffer solution and the above buffer solution containing various anti-human integrin mouse antibodies was added to the cells and the solution containing cells was allowed to stand at 4° C. for 30 minutes. After washed, FITC connective anti-mouse IgG antibody was added to the cells, which was then allowed to stand for 30 minutes and washed again. Next, the cells were fixed and the amount of antibody connected per cell was measured as the amount of FITC by using a flow cytometer."}, "integrin α5 [3]": {"test_system": "integrin α5", "experiment": "Integrin expression inhibitory action on HUVEC (flow cytometer)", "assay_type": "cell-based, human", "details": "0.05 μg/ml, 48 hours", "experimental": "as §1"}, "integrin αv": {"test_system": "integrin αv", "experiment": "Integrin expression inhibitory action on HUVEC (flow cytometer)", "assay_type": "cell-based, human", "details": "0.05 μg/ml, 48 hours", "experimental": "as §1"}, "integrin α3 [4]": {"test_system": "integrin α3", "experiment": "Integrin expression inhibitory action on HUVEC (flow cytometer)", "assay_type": "cell-based, human", "details": "0.05 μg/ml, 48 hours", "experimental": "as §1"}, "integrin α2 [5]": {"test_system": "integrin α2", "experiment": "Integrin expression inhibitory action on HUVEC (flow cytometer)", "assay_type": "cell-based, human", "details": "0.05 μg/ml, 48 hours", "experimental": "as §1"}, "integrin β5": {"test_system": "integrin β5", "experiment": "Integrin expression inhibitory action on HUVEC (flow cytometer)", "assay_type": "cell-based, human", "details": "0.05 μg/ml, 48 hours", "experimental": "as §1"}, "integrin β3": {"test_system": "integrin β3", "experiment": "Integrin expression inhibitory action on HUVEC (flow cytometer)", "assay_type": "cell-based, human", "details": "0.05 μg/ml, 48 hours", "experimental": "as §1"}, "integrin β1 [6]": {"test_system": "integrin β1", "experiment": "Integrin expression inhibitory action on HUVEC (flow cytometer)", "assay_type": "cell-based, human", "details": "0.05 μg/ml, 48 hours", "experimental": "as §1"}, "integrin β1 [7]": {"test_system": "integrin β1", "experiment": "Integrin expression inhibitory action on human colonic cancer cell line HCT116-C9", "assay_type": "cell-based"}, "integrin α6 [8]": {"test_system": "integrin α6", "experiment": "Integrin expression inhibitory action on human normal fibroblast cell line WI38", "assay_type": "cell-based", "details": "WI38, higher concentration than in Examples 1 and 2 (0.5 μg/ml and 5 μg/ml), 48 hours", "experimental": "[Worded in the source for another cell line; this cell line is reported under the same test.] as §1\n(§2) The integrin expression inhibitory action of the compound A on the above cells was examined in the same manner as in Example 1."}, "integrin α5 [9]": {"test_system": "integrin α5", "experiment": "Integrin expression inhibitory action on human normal fibroblast cell line WI38", "assay_type": "cell-based", "details": "WI38, higher concentration than in Examples 1 and 2 (0.5 μg/ml and 5 μg/ml), 48 hours", "experimental": "[Worded in the source for another cell line; this cell line is reported under the same test.] as §1, §2"}, "integrin α2 [10]": {"test_system": "integrin α2", "experiment": "Integrin expression inhibitory action on human normal fibroblast cell line WI38", "assay_type": "cell-based", "details": "WI38, higher concentration than in Examples 1 and 2 (0.5 μg/ml and 5 μg/ml), 48 hours", "experimental": "[Worded in the source for another cell line; this cell line is reported under the same test.] as §1, §2"}, "integrin β1 [11]": {"test_system": "integrin β1", "experiment": "Integrin expression inhibitory action on human normal fibroblast cell line WI38", "assay_type": "cell-based", "details": "WI38, higher concentration than in Examples 1 and 2 (0.5 μg/ml and 5 μg/ml), 48 hours", "experimental": "[Worded in the source for another cell line; this cell line is reported under the same test.] as §1, §2"}, "integrin α1": {"test_system": "integrin α1", "experiment": "Integrin expression inhibitory action on human normal fibroblast cell line WI38", "assay_type": "cell-based", "details": "WI38, higher concentration than in Examples 1 and 2 (0.5 μg/ml and 5 μg/ml), 48 hours"}, "integrin α5 [12]": {"test_system": "integrin α5", "experiment": "Integrin expression inhibitory action on human colonic cancer cell line HCT116-C9", "assay_type": "cell-based"}, "integrin α2 [13]": {"test_system": "integrin α2", "experiment": "Integrin expression inhibitory action on human colonic cancer cell line HCT116-C9", "assay_type": "cell-based"}, "integrin α3 [14]": {"test_system": "integrin α3", "experiment": "Integrin expression inhibitory action on human colonic cancer cell line HCT116-C9", "assay_type": "cell-based"}, "[15]": {"test_system": "Human umbilical venous endothelial cells (HUVEC)", "experiment": "Antiangiogenic effect-2: HUVEC tube formation between collagen layers", "assay_type": "cell-based", "details": "96 h, HUVEC in type I collagen, 10 ng/ml EGF and 20 ng/ml bFGF, cultured 4 days, read-out: IC50, area of the formed tube", "experimental": "0.4 ml of type I collagen was added to a 24-well plate and solidified. Human umbilical venous endothelial cells (HUVEC) of 8×10^4 in number were seeded on the collagen and cultured overnight by using endothelial cells culture solution (Gibco BRL) containing 10 ng/ml EGF and 20 ng/ml bFGF. Next, the supernatant was removed and then 0.4 ml of the same collagen was overlaid. A culture solution containing 1.5 ml of the compound A was further added and the cells were cultured for 4 days. Thereafter, the area of the formed tube was measured quantitatively by image analysis."}, "integrin α3 [16]": {"test_system": "integrin α3", "experiment": "Integrin expression inhibitory action on human normal fibroblast cell line WI38", "assay_type": "cell-based", "details": "WI38, higher concentration than in Examples 1 and 2 (0.5 μg/ml and 5 μg/ml), 48 hours"}, "integrin α4": {"test_system": "integrin α4", "experiment": "Integrin expression inhibitory action on human normal fibroblast cell line WI38", "assay_type": "cell-based", "details": "WI38, higher concentration than in Examples 1 and 2 (0.5 μg/ml and 5 μg/ml), 48 hours"}, "integrin α6 [17]": {"test_system": "integrin α6", "experiment": "Integrin expression inhibitory action on human colonic cancer cell line HCT116-C9", "assay_type": "cell-based", "experimental": "[Worded in the source for another cell line; this cell line is reported under the same test.] as §1, §2"}, "integrin β4": {"test_system": "integrin β4", "experiment": "Integrin expression inhibitory action on human colonic cancer cell line HCT116-C9", "assay_type": "cell-based"}, "[18]": {"details": "HCT116-C9, 0.05 μg/ml, 48 hours"}}, "data": [{"molecule": "Cc1ccc(NS(=O)(=O)c2cccc(C#N)c2)c2[nH]cc(C#N)c12", "note": "[compound A, N-(3-Cyano-4-methyl-1H-indole-7-yl)-3-cyanobenzenesulfonamide]", "values": [{"measurement": "T/C (%): amount of angiogenesis of compound-administered groups / vehicle-administered groups ×100", "setting": "[1]", "value": 53, "unit": "%"}, {"measurement": "expression of integrin α6 on the surface of the cell", "setting": "integrin α6 [2]", "value": "inhibited"}, {"measurement": "expression of integrin α5 on the surface of the cell", "setting": "integrin α5 [3]", "value": "inhibited"}, {"measurement": "expression of integrin αv on the surface of the cell", "setting": "integrin αv", "value": "inhibited"}, {"measurement": "expression of integrin α3 on the surface of the cell", "setting": "integrin α3 [4]", "value": "inhibited"}, {"measurement": "expression of integrin α2 on the surface of the cell", "setting": "integrin α2 [5]", "value": "inhibited"}, {"measurement": "expression of integrin β5 on the surface of the cell", "setting": "integrin β5", "value": "inhibited"}, {"measurement": "expression of integrin β3 on the surface of the cell", "setting": "integrin β3", "value": "inhibited"}, {"measurement": "expression of integrin β1 on the surface of the cell", "setting": "integrin β1 [6]", "value": "inhibited"}, {"measurement": "expression of integrin β1", "setting": "integrin β1 [7]; [18]", "value": "inhibited"}, {"measurement": "expression of integrin β1", "setting": "integrin β1 [7]; HCT116-C9, 0.5 μg/ml", "value": "inhibited"}, {"measurement": "expression of integrin α6", "setting": "integrin α6 [8]", "value": "no influence"}, {"measurement": "expression of integrin α5", "setting": "integrin α5 [9]", "value": "no influence"}, {"measurement": "expression of integrin α2", "setting": "integrin α2 [10]", "value": "slightly inhibited"}, {"measurement": "expression of integrin β1", "setting": "integrin β1 [11]", "value": "no influence"}, {"measurement": "expression of integrin α1", "setting": "integrin α1", "value": "no influence"}, {"measurement": "expression of integrin α5", "setting": "integrin α5 [12]; [18]", "value": "inhibited"}, {"measurement": "expression of integrin α5", "setting": "integrin α5 [12]; HCT116-C9, 0.5 μg/ml", "value": "inhibited"}, {"measurement": "expression of integrin α2", "setting": "integrin α2 [13]; [18]", "value": "inhibited"}, {"measurement": "expression of integrin α2", "setting": "integrin α2 [13]; HCT116-C9, 0.5 μg/ml", "value": "inhibited"}, {"measurement": "expression of integrin α3", "setting": "integrin α3 [14]; [18]", "value": "inhibited"}, {"measurement": "expression of integrin α3", "setting": "integrin α3 [14]; HCT116-C9, 0.5 μg/ml", "value": "inhibited"}, {"measurement": "IC50", "setting": "[15]", "value": 0.12, "unit": "µg/mL"}, {"measurement": "expression of integrin α3", "setting": "integrin α3 [16]", "value": "slightly inhibited"}, {"measurement": "expression of integrin α4", "setting": "integrin α4", "value": "slightly inhibited"}, {"measurement": "expression of integrin α6", "setting": "integrin α6 [17]; [18]", "value": "inhibited"}, {"measurement": "expression of integrin α6", "setting": "integrin α6 [17]; HCT116-C9, 0.5 μg/ml", "value": "inhibited"}, {"measurement": "expression of integrin β4", "setting": "integrin β4; [18]", "value": "inhibited"}, {"measurement": "expression of integrin β4", "setting": "integrin β4; HCT116-C9, 0.5 μg/ml", "value": "inhibited"}]}]}
